In patent US4738965A, “2-oxo-4-(2'-difl uoromethylthiophenyl)-5-methoxycarbonyl-6-methyl-1,2,3,4-tetrahydropyrimi dine” (Institut Organischskogo Sinteza Akademii Nauk SSR, priority 1987, dated 1988):
Read-outs that look alike come from different tables or passages of the source.

How the values were obtained:
[1] = system: Coronary Blood Flow (descending branch of the left coronary artery); assay: Coronary dilating activity: coronary blood flow in narcotized dogs with open thoracic cavity; type: in vivo; details: for ED (50% increase): Canis lupus familiaris, read-out: Dose increasing coronary blood flow by 50%
Procedure: The experiments have been conducted on narcotized dogs with the open thoracic cavity. The blood flow was registered in the descending branch of the left coronary artery.
The blood flow was determined before and after the injection of the proposed compounds. The proposed compound was introduced in a single dose, intravenously, followed by calculating the increase in the coronary blood flow in percent.

Arterial Pressure = assay: Hypotensive activity in spontaneously-hypertensive rats; type: in vivo, spontaneously-hypertensive rats (SHR) of Okamoto-Aoki line; details: SHR, single 10 mg/kg dose into the stomach; for Hypotensive activity: Table 2
Procedure: The experiments were conducted on spontaneously-hypertensive rats (SHR) of Okamoto-Aoki line.

[2] = system: coronary dilating activity; details: clinical practice, in words; cited from earlier work
[3] = large doses, in words; cited from earlier work
Acute toxicity in mice = details: mouse, in vivo, ip
[4] = system: systemic arterial pressure and cardiac output; assay: Systemic arterial pressure and cardiac output in narcotized dogs; type: in vivo; details: 0.01-0.1 mg/kg, intravenous
Solubility = type: physicochemical
Chemical stability = type: physicochemical
in vivo = details: mouse, ip
mongrel white mice = assay: Acute toxicity in mice; details: ratio versus nifedipin and papaverine
[5] = 0.1 mg/kg, single dose, intravenous, narcotized dogs
[6] = 0.5 mg/kg, single dose, intravenous, narcotized dogs
[7] = 0.01 mg/kg, single dose, intravenous, narcotized dogs

COc1ccc(Cc2nccc3cc(OC)c(OC)cc23)cc1OC [Papaverine, reference compound]
Duration of effect [1, 5]: 5 min | Increase of coronary blood flow [1, 5]: 20% | Duration of effect [1, 6]: 7 min | Increase of coronary blood flow [1, 6]: 30% | ED (50% increase) ([1]; iv): 0.9 mg/kg | Duration of hypotensive effect (Arterial Pressure): 3 h | Effect on arterial pressure (in words) (Arterial Pressure): insignificant effect on arterial pressure | Reduction of (systolic) arterial pressure (Arterial Pressure): 5% | Hypotensive activity (Arterial Pressure): 5 | Coronary dilating activity [2]: low coronary dilating activity | Toxicity [3]: rather high | LD50 at 336 h (Acute toxicity in mice): 91 mg/kg

COC(=O)C1=C(C)NC(=O)NC1c1ccccc1SC(F)F (stereo not shown) [Proposed compound, 2-oxo-4-(2'-difluoromethylthiophenyl)-5-methoxycarbonyl-6-methyl-1,2,3,4-tetrahydropyrimidine]
Increase of coronary blood flow ([1]; 0.001 mg/kg, single dose, intravenous, narcotized dogs): 19% | Duration of effect [1, 7]: 35 min | Increase of coronary blood flow [1, 7]: 79% | Duration of effect [1, 5]: 60 min | Increase of coronary blood flow [1, 5]: 107% | ED (50% increase) ([1]; single dose, intravenous, narcotized dogs): 0.006 mg/kg | Duration of effect compared with nifedipin ([1]; ratio versus nifedipin): 1.7 times | Strong and prolonged vasodilating effect with relation to coronary vessels, compared with nifedipin ([1]; ratio versus nifedipin (summary)): 1.7 times | Coronary dilating activity compared with papaverine, by doses ([1]; ratio versus papaverine): 150 times | Duration of effect compared with papaverine ([1]; ratio versus papaverine): over 10 times | Strong and prolonged vasodilating effect with relation to coronary vessels, compared with papaverine ([1]; ratio versus papaverine (summary)): about 10 times | Coronary dilating effect compared with nifedipin ([1]; versus nifedipin, in words): approximately equal in activity to nifedipin | Change of systemic arterial pressure and cardiac output [4]: did not change the systemic arterial pressure and the cardiac output | Duration of hypotensive effect (Arterial Pressure): 6 h | Effect on arterial pressure (in words) (Arterial Pressure): no substantial effect on arterial pressure | Reduction of (systolic) arterial pressure (Arterial Pressure): 8% | Hypotensive activity (Arterial Pressure): 8 | Solubility in organic solvents (Solubility; ethyl alcohol, acetone, chloroform and other organic solvents): comparatively easily-soluble in ethyl alcohol, acetone, chloroform and other organic solvents | Solubility in water (Solubility; water): insoluble in water | Chemical stability (Chemical stability): chemically stable | LD50 at 336 h (in vivo): > 2000 mg/kg | Toxicity, times lower than that of nifedipin and papaverine (mongrel white mice): 10-20 times
